Values of other authors, collected in PMC8453901, “GLPG1205, a GPR84 Modulator: Safety, Pharmacokinetics, and Pharmacodynamics in Healthy Subjects” (Clinical Pharmacology in Drug Development, 2021).

System: histological lesions in the lung
Set-up: method as in PMID 29454750
Details: bleomycin-induced mouse model of pulmonary fibrosis, compared with vehicle; cited from earlier work

## CCCCCc1cccc(CC(=O)O)c1 [PBI‐4050]
  reduction of histological lesions in the lung: 47%
